Laboratory results: patent US20250122174A1 (Shenzhen Yuanli Shenwan Innovative Medicine Co., Ltd., priority 2022, published 2025)

What follows are compounds tested against HPK1 (Homo sapiens (Human), UniProt Q92918) (assay: HPK1 Inhibition Assay (ADP-Glo kinase assay)). Details: ATP 10 μM.
Format: biochemical
Summary of the method: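 ADP-Glo luminescence read-out after 1 h room-temperature kinase reaction with 10 μM ATP and 0.1 μg/ml MBP. Recombinant human HPK1 at 7.5 ng/μl; buffer 40 mM Tris pH 7.5, 20 mM MgCl2. Compounds serially diluted 5-fold over 10 points from 10 mM DMSO stock.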

Chain of HPK1 (Q92918 1-346 limits assumed): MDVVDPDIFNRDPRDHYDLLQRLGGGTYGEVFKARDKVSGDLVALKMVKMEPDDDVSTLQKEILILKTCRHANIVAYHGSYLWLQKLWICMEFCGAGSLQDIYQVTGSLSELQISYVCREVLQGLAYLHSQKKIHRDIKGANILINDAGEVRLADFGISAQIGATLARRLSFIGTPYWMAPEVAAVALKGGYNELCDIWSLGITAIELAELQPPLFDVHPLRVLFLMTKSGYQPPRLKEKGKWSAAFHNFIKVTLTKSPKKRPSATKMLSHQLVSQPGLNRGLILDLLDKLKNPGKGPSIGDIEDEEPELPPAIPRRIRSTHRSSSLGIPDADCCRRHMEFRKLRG

| IC50 | Compound |
| --- | --- |
| < 0.1 µM | N[C@H]1CN(c2c(NC(=O)c3ccc(=O)n(-c4c(F)cccc4F)n3)ccc3c2cnn3C2CCOCC2)CC12CC2 [Example 251, (R)-N-(4-(7-amino-5-azaspiro[2.4]heptan-5-yl)-1-(tetrahydro-2H-pyran-4-yl)-1H-indazol-5-yl)-1-(2,6-difluorophenyl)-6-oxo-1,6-dihydropyridazine-3-carboxamide] |
| < 0.1 µM | COc1cccc(F)c1-c1cccc(C(=O)Nc2ccc3c(nc(C)n3C)c2N2C[C@@H]3C[C@H]2CN3)[n+]1[O-] [Example 60, 2-((4-((1S,4S)-2,5-diazabicyclo[2.2.1]heptan-2-yl)-1,2-dimethyl-1H-benzo[d]imidazol-5-yl)carbamoyl)-6-(2-fluoro-6-methoxyphenyl)pyridine 1-oxide] |
| 0.1 to 1 µM | COc1cccc(F)c1-c1nccc(C(=O)Nc2cc(F)ccc2N2C[C@@H]3C[C@H]2CN3)c1F [Example 1, N-(2-((1S,4S)-2,5-diazabicyclo[2.2.1]heptan-2-yl)-5-fluorophenyl)-3-fluoro-2-(2-fluoro-6-methoxyphenyl)isonicotinamide] |
| < 0.1 µM | NC1CCN(c2c(NC(=O)c3ccc(=O)n(-c4c(F)cccc4F)n3)ccc3c2cnn3[C@@H]2CCOC2)CC1 [Example 265, (R)-N-(4-(4-aminopiperidin-1-yl)-1-(tetrahydrofuran-3-yl)-1H-indazol-5-yl)-1-(2,6-difluorophenyl)-6-oxo-1,6-dihydropyridazine-3-carboxamide] |
| < 0.1 µM | Cc1nc2c(N3CCNCC3)c(NC(=O)c3ccc(=O)n(-c4c(F)cccc4F)n3)ccc2n1C [Example 71, 1-(2,6-difluorophenyl)-N-(1,2-dimethyl-4-(piperazin-1-yl)-1H-benzo[d]imidazol-5-yl)-6-oxo-1,6-dihydropyridazine-3-carboxamide] |
| < 0.1 µM | CC(C)n1cc2c(N3CC[C@@H](N)C3)c(NC(=O)c3ccc(=O)n(-c4c(F)cccc4F)n3)ccc2n1 [Example 114, (R)-N-(4-(3-aminopyrrolidin-1-yl)-2-isopropyl-2H-indazol-5-yl)-1-(2,6-difluorophenyl)-6-oxo-1,6-dihydropyridazine-3-carboxamide] |
| < 0.1 µM | Cn1ncc2c(N3CC[C@@H](N)C3)c(NC(=O)c3ccc(=O)n(-c4c(F)cccc4F)n3)ccc21 [Example 167, (R)-N-(4-(3-aminopyrrolidin-1-yl)-1-methyl-1H-indazol-5-yl)-1-(2,6-difluorophenyl)-6-oxo-1,6-dihydropyridazine-3-carboxamide] |
| < 0.1 µM | CC(C)n1ncc2c(N3CC[C@@H](N)C3)c(NC(=O)c3ccc(=O)n(-c4c(F)cccc4F)n3)ccc21 [Example 179, N-[4-[(3R)-3-aminopyrrolidin-1-yl]-1-isopropyl-indazol-5-yl]-1-(2,6-difluorophenyl)-6-oxo-pyridazine-3-carboxamide] |
| < 0.1 µM | CC(C)n1cc2c(N3CCC[C@@H]3CN)c(NC(=O)c3ccc(=O)n(-c4c(F)cccc4F)n3)ccc2n1 [Example 225, (R)-N-(4-(2-(aminomethyl)pyrrolidin-1-yl)-2-isopropyl-2H-indazol-5-yl)-1-(2,6-difluorophenyl)-6-oxo-1,6-dihydropyridazine-3-carboxamide] |
| < 0.1 µM | COc1cccc(F)c1-n1cccc(C(=O)Nc2cc(F)ccc2N2C[C@H]3C[C@@H]2CN3)c1=O [Example 51, N-(2-((1R,4R)-2,5-diazabicyclo[2.2.1]heptan-2-yl)-5-fluorophenyl)-1-(2-fluoro-6-methoxyphenyl)-2-oxo-1,2-dihydropyridine-3-carboxamide] |
| < 0.1 µM | COc1cccc(F)c1-c1cccc(C(=O)Nc2ccc3c(nc(C)n3C)c2N2CCC[C@H]2CN)[n+]1[O-] [Example 61, 2-((4-((S)-2-(aminomethyl)pyrrolidin-1-yl)-1,2-dimethyl-1H-benzo[d]imidazol-5-yl)carbamoyl)-6-(2-fluoro-6-methoxyphenyl)pyridine 1-oxide] |
| < 0.1 µM | [2H]C([2H])([2H])n1ncc2c(N3C[C@H](N)C4(CC4)C3)c(NC(=O)c3ccc(=O)n(-c4c(F)cccc4F)n3)ccc21 [Example 172, (R)-N-(4-(7-amino-5-azaspiro[2.4]heptan-5-yl)-1-(methyl-d3)-1H-indazol-5-yl)-1-(2,6-difluorophenyl)-6-oxo-1,6-dihydropyridazine-3-carboxamide] |
| < 0.1 µM | CC(C)c1nc2c(N3C[C@@H]4[C@H](N)[C@@H]4C3)c(NC(=O)c3ccc(=O)n(-c4c(F)cccc4F)n3)cc(F)c2n1C [Example 145, N-(4-((1R,5S,6r)-6-amino-3-azabicyclo[3.1.0]hexane-3-yl)-7-fluoro-2-isopropyl-1-methyl-1H-benzo[d]imidazol-5-yl)-1-(2,6-difluorophenyl)-6-oxo-1,6-dihydropyridazine-3-carboxamide] |
| < 0.1 µM | C[C@@H]1CN(c2c(NC(=O)c3ccc(=O)n(-c4c(F)cccc4F)n3)ccc3c2cnn3C2COC2)C[C@@H]1N [Example 258, N-(4-((3R,4R)-3-amino-4-methylpyrrolidin-1-yl)-1-(oxetan-3-yl)-1H-indazol-5-yl)-1-(2,6-difluorophenyl)-6-oxo-1,6-dihydropyridazine-3-carboxamide] |
| < 0.1 µM | CC1(C)CN(c2c(NC(=O)c3ccc(=O)n(-c4c(F)cccc4F)n3)ccc3nn([C@@H]4CCOC4)cc23)C[C@@H]1N [Example 322, N-(4-((R)-4-amino-3,3-dimethylpyrrolidin-1-yl)-2-((R)-tetrahydrofuran-3-yl)-2H-indazol-5-yl)-1-(2,6-difluorophenyl)-6-oxo-1,6-dihydropyridazine-3-carboxamide] |
| < 0.1 µM | CC(C)(C)n1cc2c(N3CCC[C@@H](N)C3)c(NC(=O)c3ccc(=O)n(-c4c(F)cccc4F)n3)ccc2n1 [Example 239, (R)-N-(4-(3-aminopiperidin-1-yl)-2-(tert-butyl)-2H-indazol-5-yl)-1-(2,6-difluorophenyl)-6-oxo-1,6-dihydropyridazine-3-carboxamide] |
| < 0.1 µM | CC(C)n1ncc2c(N3CCC(N)CC3)c(NC(=O)c3ccc(=O)n(-c4c(F)cccc4F)n3)cc(F)c21 [Example 217, N-(4-(4-aminopiperidin-1-yl)-7-fluoro-1-isopropyl-1H-indazol-5-yl)-1-(2,6-difluorophenyl)-6-oxo-1,6-dihydropyridazine-3-carboxamide] |
| < 0.1 µM | N#Cc1ccncc1-c1ccc(NC(=O)c2ccc(=O)n(-c3c(F)cccc3F)n2)c(N2CC[C@@](N)(CO)C2)c1 (single isomer, unassigned) [Example 356] |
| 0.1 to 1 µM | COc1cccc(F)c1-c1nccc(C(=O)Nc2ccc3c(nc(C)n3C)c2N2CCC[C@H]2CO)c1F [Example 9, 3-fluoro-2-(2-fluoro-6-methoxyphenyl)-N-(4-((S)-2-(hydroxymethyl)pyrrolidin-1-yl)-1,2-dimethyl-1H-benzo[d]imidazol-5-yl)isonicotinamide] |
| < 0.1 µM | COc1ccc(F)cc1-n1nccc(C(=O)Nc2ccc3c(nc(C)n3C)c2N2CC[C@H](N)C2)c1=O [Example 50, (S)—N-(4-(3-aminopyrrolidin-1-yl)-1,2-dimethyl-1H-benzo[d]imidazol-5-yl)-2-(5-fluoro-2-methoxyphenyl)-3-oxo-2,3-dihydropyridazine-4-carboxamide] |
| < 0.1 µM | N#Cc1ccncc1-c1ccc(NC(=O)c2ccc(=O)n(-c3c(F)cccc3F)n2)c(N2CCC(NCCO)CC2)c1 [Example 360, N-(4-(4-cyanopyridin-3-yl)-2-(4-((2-hydroxyethyl)amino)piperidin-1-yl)phenyl)-1-(2,6-difluorophenyl)-6-oxo-1,6-dihydropyridazine-3-carboxamide] |
| < 0.1 µM | CC(C)c1nc2c(N3C[C@H](N)C4(COC4)C3)c(NC(=O)c3ccc(=O)n(-c4c(F)cccc4F)n3)ccc2n1C [Example 113, (R)-N-(4-(8-amino-2-oxa-6-azaspiro[3.4]octan-6-yl)-2-isopropyl-1-methyl-1H-benzo[d]imidazol-5-yl)-1-(2,6-difluorophenyl)-6-oxo-1,6-dihydropyridazine-3-carboxamide] |
| < 0.1 µM | Cc1nc2c(N3CCC(C)(N)CC3)c(NC(=O)c3ccc(=O)n(-c4c(F)cccc4F)n3)ccc2n1C [Example 76, N-(4-(4-amino-4-methylpiperidin-1-yl)-1,2-dimethyl-1H-benzo[d]imidazol-5-yl)-1-(2,6-difluorophenyl)-6-oxo-1,6-dihydropyridazine-3-carboxamide] |
| 0.1 to 1 µM | Cn1ncc2c(N3C[C@@H]4C[C@H]3CN4)c(NC(=O)c3ccc(=O)n(-c4c(F)cccc4F)n3)ccc21 [Example 87, N-(4-((1S,4S)-2,5-diazabicyclo[2.2.1]heptan-2-yl)-1-methyl-1H-indazol-5-yl)-1-(2,6-difluorophenyl)-6-oxo-1,6-dihydropyridazine-3-carboxamide] |
| < 0.1 µM | Cc1cc(NC(=O)c2ccc(=O)n(-c3c(F)cccc3F)n2)c(N2CC[C@@H](N)C2)c2cn(C(C)C)nc12 [Example 226, (R)-N-(4-(3-aminopyrrolidin-1-yl)-2-isopropyl-7-methyl-2H-indazol-5-yl)-1-(2,6-difluorophenyl)-6-oxo-1,6-dihydropyridazine-3-carboxamide] |
| < 0.1 µM | COc1cccc(F)c1-c1nccc(C(=O)Nc2ccc3c(nc(-c4ccncc4F)n3C)c2N2CC[C@H](N)C2)c1F [Example 14, N-{4-[(3S)-3-aminopyrrolidin-1-yl]-2-(3-fluoropyridin-4-yl)-1-methyl-1,3-benzodiazol-5-yl}-3-fluoro-2-(2-fluoro-6-methoxyphenyl)pyridine-4-carboxamide] |
| < 0.1 µM | [2H]C([2H])([2H])C(n1ncc2c(N3C[C@@H](N)C(C)(C)C3)c(NC(=O)c3ccc(=O)n(-c4c(F)cccc4F)n3)ccc21)C([2H])([2H])[2H] [Example 280, (S)-N-(4-(4-amino-3,3-dimethylpyrrolidin-1-yl)-1-(propan-2-yl-1,1,1,3,3,3-d6)-1H-indazol-5-yl)-1-(2,6-difluorophenyl)-6-oxo-1,6-dihydropyridazine-3-carboxamide] |
